EC50 data for 26 compounds are collected here from patent US11168086B2, “Methods of synthesizing pyrazine compounds” (Hoffmann-La Roche Inc., priority 2015, dated 2021).

For the first assay, the system named is HBV. Nature of the assay: HBV inhibition assay: anti-HBV activity in vitro in HepG2.2.15 cells (extracellular HBV DNA by qPCR). The conditions noted are these: Hepatitis B virus, 120 h, five days after compound treatment, extracellular HBV DNA in culture supernatant by qPCR, concentration at which HBV replication is inhibited by 50%. The class given is cell-based. An excerpt: Example 441: HBV Inhibition Assays
Cell Line and Culture Conditions:
HepG2.2.15 is a stably-transfected cell line containing the HBV genome. It is derived from the hepatoblastoma cell line Hep G2 (American Type Culture Collection, ATCC® HB-8065™) by the published procedures described in reference: MA Selles et al. Proc. Natl. Acad. Sci. USA 1987, 84, 1005-1009. The cell line was maintained in Dulbecco's modified Eagle's medium (DMEM)-F12 medium supplemented with 10% fetal bovine serum, 100 U/mL penicillin, 100 μg/mL streptomycin, and 0.5 mg/mL of G418.
Anti-HBV Activity In Vitro:
HepG2.2.15 cells were seeded into 96-well plates (3×10^4 cells in 100 μL media per well) and incubated overnight at 37° C. The test compounds were serially half-log diluted in DMSO, then diluted 100 times in culture media. 100 μL diluted compounds were added into the plates to reach 0.5% final concentration of DMSO in every well. Five days after compound treatment, culture supernatant was collected for further analysis.
For quantitative PCR detection of extracellular HBV DNA, culture supernatant was processed by Proteinase K digestion. After heat inactivation of the enzyme, the samples were subjected to HBV DNA quantification by qPCR. The effective compound concentration at which
HBV replication is inhibited by 50% (EC50) was determined.
For orientation: Real-time PCR tracks product formation cycle by cycle.
A word on the EC50: it is the concentration needed to bring the measured effect to its halfway point. In the case of `C[C@H]1Cn2ncc(N3CC4CC4C3=O)c2CN1C(=O)Nc1cc(F)c(F)c(F)c1` (stereo partly drawn) [Example 253, (6S)-6-methyl-3-(2-oxo-3-azabicyclo[3.1.0]hexan-3-yl)-N-(3,4,5-trifluorophenyl)-6,7-dihydro-4H-pyrazolo[1,5-a]pyrazine-5-carboxamide], the midpoint of the response, the EC50, lay at 44 nM.
In turn, `CCOC(=O)N1CC2(CC(=O)N(c3cnn4c3CN(C(=O)Nc3cc(F)c(F)c(F)c3)[C@@H](C)C4)C2)C1` [Example 334, ethyl 6-[(6S)-6-methyl-5-[(3,4,5-trifluorophenyl)carbamoyl]-6,7-dihydro-4H-pyrazolo[1,5-a]pyrazin-3-yl]-7-oxo-2,6-diazaspiro[3.4]octane-2-carboxylate] displayed an EC50 of 22 nM.
The same measure, in the same setting: the figure for `C[C@H]1Cn2ncc(N3CC(c4ccncc4)OC3=O)c2CN1C(=O)Nc1cc(F)c(F)c(F)c1` (stereo partly drawn) [Example 346, (6S)-6-methyl-3-[2-oxo-5-(4-pyridyl)oxazolidin-3-yl]-N-(3,4,5-trifluorophenyl)-6,7-dihydro-4H-pyrazolo[1,5-a]pyrazine-5-carboxamide] is 12 nM.
Still for that read-out and setting: the figure for `C[C@H]1Cn2ncc(N3CCC(O)C3=O)c2CN1C(=O)Nc1ccc(F)c(Cl)c1` (stereo partly drawn) [Example 256, (6S)—N-(3-chloro-4-fluoro-phenyl)-3-(3-hydroxy-2-oxo-pyrrolidin-1-yl)-6-methyl-6,7-dihydro-4H-pyrazolo[1,5-a]pyrazine-5-carboxamide] is 68 nM.
The same measure, in the same setting: the figure for `C[C@@H]1CN(C(=O)C2CC(=O)N(c3cnn4c3CN(C(=O)Nc3cc(F)c(F)c(F)c3)[C@@H](C)C4)C2)C[C@@H](C)O1` (stereo partly drawn) [Example 396, (6S)-3-[4-[trans-2,6-dimethylmorpholine-4-carbonyl]-2-oxo-pyrrolidin-1-yl]-6-methyl-N-(3,4,5-trifluorophenyl)-6,7-dihydro-4H-pyrazolo[1,5-a]pyrazine-5-carboxamide] is 58 nM.
`C#Cc1cc(NC(=O)N2CCn3ncc(-c4ccc(F)cc4F)c3C2)ccc1F` [Example 139, 3-(2,4-difluorophenyl)-N-(3-ethynyl-4-fluoro-phenyl)-6,7-dihydro-4H-pyrazolo[1,5-a]pyrazine-5-carboxamide] came in with a concentration for a half-maximal effect (EC50) of 46 nM.
In turn, `COC(=O)N1CC2(CC(=O)N(c3cnn4c3CN(C(=O)Nc3cc(F)c(F)c(F)c3)[C@@H](C)C4)C2)C1` [Example 333, methyl 6-[(6S)-6-methyl-5-[(3,4,5-trifluorophenyl)carbamoyl]-6,7-dihydro-4H-pyrazolo[1,5-a]pyrazin-3-yl]-7-oxo-2,6-diazaspiro[3.4]octane-2-carboxylate] returned an EC50 of 46 nM.
Regarding `C[C@@H]1[C@@H](Oc2ncccn2)[C@H](O)C(=O)N1c1cnn2c1CN(C(=O)Nc1cc(F)c(F)c(F)c1)[C@@H](C)C2` [Example 436, (6S)-3-[(2R,3R,4S)-4-hydroxy-2-methyl-5-oxo-3-pyrimidin-2-yloxy-pyrrolidin-1-yl]-6-methyl-N-(3,4,5-trifluorophenyl)-6,7-dihydro-4H-pyrazolo[1,5-a]pyrazine-5-carboxamide], the EC50 is 16 nM.
On to `C[C@H]1Cn2ncc(-n3cc(CO)cn3)c2CN1C(=O)Nc1cc(F)c(F)c(F)c1` [Example 342, (6S)-3-[4-(hydroxymethyl)pyrazol-1-yl]-6-methyl-N-(3,4,5-trifluorophenyl)-6,7-dihydro-4H-pyrazolo[1,5-a]pyrazine-5-carboxamide], for which the EC50 was found to be 41 nM.
Same read-out and setting: the figure for `CC1CCN(c2cnn3c2CN(C(=O)Nc2cc(F)c(F)c(F)c2)[C@@H](C)C3)C(=O)O1` (stereo partly drawn) [Example 425, (6S)-6-methyl-3-(6-methyl-2-oxo-1,3-oxazinan-3-yl)-N-(3,4,5-trifluorophenyl)-6,7-dihydro-4H-pyrazolo[1,5-a]pyrazine-5-carboxamide] is 87 nM; for `C[C@H]1Cn2ncc(N3CC(c4nnc(C(F)(F)F)o4)CC3=O)c2CN1C(=O)Nc1cc(F)c(F)c(F)c1` (stereo partly drawn) [Example 286, (6S)-6-methyl-3-[2-oxo-4-[5-(trifluoromethyl)-1,3,4-oxadiazol-2-yl]pyrrolidin-1-yl]-N-(3,4,5-trifluorophenyl)-6,7-dihydro-4H-pyrazolo[1,5-a]pyrazine-5-carboxamide] it is 26 nM; for `Cc1noc(C2CN(c3cnn4c3CN(C(=O)Nc3cc(F)c(F)c(F)c3)[C@@H](C)C4)C(=O)O2)n1` (stereo partly drawn) [Example 408, (6S)-6-methyl-3-[5-(3-methyl-1,2,4-oxadiazol-5-yl)-2-oxo-oxazolidin-3-yl]-N-(3,4,5-trifluorophenyl)-6,7-dihydro-4H-pyrazolo[1,5-a]pyrazine-5-carboxamide] it is 22 nM.
Still for that read-out and setting: the same measure for `C[C@H]1Cn2ncc(N3CC(C(=O)N4CCCC4)CC3=O)c2CN1C(=O)Nc1cc(F)c(F)c(F)c1` (stereo partly drawn) [Example 391, (6S)-6-methyl-3-[2-oxo-4-(pyrrolidine-1-carbonyl)pyrrolidin-1-yl]-N-(3,4,5-trifluorophenyl)-6,7-dihydro-4H-pyrazolo[1,5-a]pyrazine-5-carboxamide]: 74 nM; for `C[C@@H]1CN(C(=O)C2CC(=O)N(c3cnn4c3CN(C(=O)Nc3cc(F)c(F)c(F)c3)[C@@H](C)C4)C2)C[C@H](C)O1` (stereo partly drawn) [Example 397, (6S)-3-[4-[cis-2,6-dimethylmorpholine-4-carbonyl]-2-oxo-pyrrolidin-1-yl]-6-methyl-N-(3,4,5-trifluorophenyl)-6,7-dihydro-4H-pyrazolo[1,5-a]pyrazine-5-carboxamide]: 60 nM.
Same read-out and setting: the figure for `C[C@@H]1CN(C(=O)C2CC(=O)N(c3cnn4c3CN(C(=O)Nc3cc(F)c(F)c(F)c3)[C@@H](C)C4)C2)CCO1` (stereo partly drawn) [Example 394, (6S)-6-methyl-3-[4-[(2R)-2-methylmorpholine-4-carbonyl]-2-oxo-pyrrolidin-1-yl]-N-(3,4,5-trifluorophenyl)-6,7-dihydro-4H-pyrazolo[1,5-a]pyrazine-5-carboxamide] is 65 nM; for `C[C@H]1Cn2ncc(N3CC4(CC4)CC3=O)c2CN1C(=O)Nc1cc(F)c(F)c(F)c1` [Example 252, (6S)-6-methyl-3-(6-oxo-5-azaspiro[2.4]heptan-5-yl)-N-(3,4,5-trifluorophenyl)-6,7-dihydro-4H-pyrazolo[1,5-a]pyrazine-5-carboxamide] it is 15 nM.
On to `C#Cc1cc(NC(=O)N2CCn3ncc(-c4ccc(F)cc4)c3C2)ccc1F` [Example 122, N-(3-ethynyl-4-fluoro-phenyl)-3-(4-fluorophenyl)-6,7-dihydro-4H-pyrazolo[1,5-a]pyrazine-5-carboxamide], for which the EC50 stood at 93 nM.
For `C[C@H]1Cn2ncc(N3CC(c4nnco4)CC3=O)c2CN1C(=O)Nc1cc(F)c(F)c(F)c1` (stereo partly drawn) [Example 282, (6S)-6-methyl-3-[4-(1,3,4-oxadiazol-2-yl)-2-oxo-pyrrolidin-1-yl]-N-(3,4,5-trifluorophenyl)-6,7-dihydro-4H-pyrazolo[1,5-a]pyrazine-5-carboxamide], the EC50 worked out at 57 nM.
On the same count and under the same terms, the same measure for `CC1Cn2ncc(N3CC(C)(C)CC3=O)c2CN1C(=O)Nc1ccc(F)c(Cl)c1` (centres unmarked) [Example 212, N-(3-chloro-4-fluoro-phenyl)-3-(4,4-dimethyl-2-oxo-pyrrolidin-1-yl)-6-methyl-6,7-dihydro-4H-pyrazolo[1,5-a]pyrazine-5-carboxamide]: 33 nM.
Still for that read-out and setting: the figure for `C[C@H]1Cn2ncc(N3CC(C#N)(CO)CC3=O)c2CN1C(=O)Nc1cc(F)c(F)c(F)c1` (stereo partly drawn) [Example 360, (6S)-3-[4-cyano-4-(hydroxymethyl)-2-oxo-pyrrolidin-1-yl]-6-methyl-N-(3,4,5-trifluorophenyl)-6,7-dihydro-4H-pyrazolo[1,5-a]pyrazine-5-carboxamide] is 43 nM; for `C[C@H]1Cn2ncc(-c3ccc(F)cc3)c2CN1C(=O)Nc1ccc(F)c(Cl)c1` [Example 102, (6S)—N-(3-chloro-4-fluoro-phenyl)-3-(4-fluorophenyl)-6-methyl-6,7-dihydro-4H-pyrazolo[1,5-a]pyrazine-5-carboxamide] it is 14 nM.
`O=C(Nc1ccc(F)c(Cl)c1)N1CCn2ncc(-c3ccccc3F)c2C1` [Example 24, N-(3-chloro-4-fluoro-phenyl)-3-(2-fluorophenyl)-6,7-dihydro-4H-pyrazolo[1,5-a]pyrazine-5-carboxamide] displayed an EC50 of 33 nM.
Same read-out and setting: the same measure for `COC1CC(=O)N(c2cnn3c2CN(C(=O)Nc2ccc(F)c(Cl)c2)[C@@H](C)C3)C1` (stereo partly drawn) [Example 238, (6S)—N-(3-chloro-4-fluoro-phenyl)-3-(4-methoxy-2-oxo-pyrrolidin-1-yl)-6-methyl-6,7-dihydro-4H-pyrazolo[1,5-a]pyrazine-5-carboxamide]: 21 nM; for `C[C@H]1Cn2ncc(N3CC(C)(C(=O)N4CCC(F)(F)C4)CC3=O)c2CN1C(=O)Nc1cc(F)c(F)c(F)c1` (stereo partly drawn) [Example 400, (6S)-3-[4-(3,3-difluoropyrrolidine-1-carbonyl)-4-methyl-2-oxo-pyrrolidin-1-yl]-6-methyl-N-(3,4,5-trifluorophenyl)-6,7-dihydro-4H-pyrazolo[1,5-a]pyrazine-5-carboxamide]: 94 nM.

The same assay, now with this note: five days after compound treatment, extracellular HBV DNA in culture supernatant by qPCR, concentration at which HBV replication is inhibited by 50%.
On to `CC1C(C#N)CC(=O)N1c1cnn2c1CN(C(=O)Nc1cc(F)c(F)c(F)c1)[C@@H](C)C2` (single isomer, unassigned) [Example 420-3], for which the EC50 was found to be 3 nM.
The compound `C[C@H]1Cn2ncc(N3CC(c4ccccc4)C(O)C3=O)c2CN1C(=O)Nc1cc(F)c(F)c(F)c1` (single isomer, unassigned) [Example 438-1] registered an EC50 of 10 nM.
